We go through four compounds from patent publication US9603900B2, “Use of PACAP for the treatment of viral infections in aquatic organisms” (Centro de Ingenieria Genetica y Biotecnologia, priority 2010, dated 2017).

One assay deals with Mx protein coding gene. Put plainly: PACAP38 effect on transcription of Mx protein coding gene in leukocytes (qPCR). In kind it is cell-based, rainbow trout (Oncorhynchus mykiss). As to conditions: 48 hours. The text has this: (§1) Juvenile rainbow trout (O. mykiss) was used of approximately 50 grams, VHSV and IPNV free. Fish (n=5) were anesthetized with methanesulfonic acid salt (Sigma, USA) and were removed aseptically, first peripheral blood from the tail vein and then the anterior kidney were isolated from peripheral blood leukocytes from anterior kidney and trout from 5 independently, following the method described by Graham and Secombe (Graham and Secombe ([…]) Immunology 65:293-7).
(§2) The peripheral blood of each fish was diluted 4 times in half Leibovitz (L-15, Gibco, UK) supplemented with penicillin 100 IU/mL, streptomycin (100 μg/mL), heparin (10 units/mL) and 2% FCS and placed carefully on a Percoll gradient to 51%. The ring of cells corresponding to leukocytes was removed carefully, washed twice in L-15 containing 0.1% FCS.
(§3) The anterior kidney was passed through a nylon mesh of 100 μm Leibovitz (L-15, Gibco, UK) supplemented with penicillin 100 IU/mL, streptomycin (100 μg/mL), heparin (10 units/mL) and 2% FCS. The resulting cell suspension was diluted 1:4 in the same medium supplemented L-15 and placed carefully on a Percoll gradient to 51%. The ring of cells corresponding to leukocytes was removed carefully, washed twice in L-15 containing 0.1% FCS.
(§4) The cells were suspended in L-15 with 5% FCS at a concentration of 5×10^6 cells per ml and dispensed in 24-well plates at 1 mL per well. The leukocytes were treated with 3 doses of PACAP38 from Clarias gariepinus obtained by chemical synthesis (10^−10 M, 10^−9 M and 10^−8 M) in duplicate and used as negative control untreated leukocytes dispensed in duplicate.
(§5) The levels of Mx, IFN and TLR9 were evaluated 48 hours after treatment. In order to do so, total RNA was purified from leukocyte cultures treated with PACAP by the method described by Chomczynski and Sacchi (Chomczynski and Sacchi (1987) Anal. Biochem. 162:156-9).
(§6) For the synthesis of cDNA it was used a commercial reagent kit uses SuperScript III reverse transcriptase (Invitrogen). Finally, for quantitative PCR reactions (qPCR) was used a mixture of PCR from commercial sources: Power SYBR Green PCR Master Mix (Applied Biosystems). The qPCR results were normalized against a constitutive endogenous constitutive expression gene specifically elongation 1α (EF 1α) and were performed in triplicate. The results were expressed as 2^−ΔCt, where ΔCt is equal to the remainder of the gene Ct value minus the assessed value of Ct normalizer gene EF 1α).
Background: In qPCR the cycle at which signal appears reflects the starting amount.

In another assay the test system is TLR9 coding gene. The assay is described as follows: PACAP38 effect on transcription of TLR9 coding gene in leukocytes (qPCR). In kind it is cell-based, rainbow trout (Oncorhynchus mykiss). The settings on record: 48 hours.
Excerpt: as §1, §2, §3, §4
The levels of Mx, IFN and TLR9 were evaluated 48 hours after treatment. […]
For the synthesis of cDNA it was used a commercial reagent kit uses SuperScript III reverse transcriptase (Invitrogen). Finally, for quantitative PCR reactions (qPCR) was used a mixture of PCR from commercial sources: Power SYBR Green PCR Master Mix (Applied Biosystems). […] The results were expressed as 2^−ΔCt, where ΔCt is equal to the remainder of the gene Ct value minus the assessed value of Ct normalizer gene EF 1α).

The subject of another assay is IFN γ coding gene. The assay is described as follows: PACAP38 effect on transcription of IFN γ coding gene in leukocytes (qPCR). Type of assay: cell-based, rainbow trout (Oncorhynchus mykiss). As to conditions: 48 hours.
Excerpt: as §1, §2, §3, §4, §5, §6

The subject of another assay is IHNV. The assay is described as follows: Rainbow trout experimentally infected with IHNV. Type of assay: in vivo, rainbow trout (O. mykiss). The settings on record: amantadine 400/800 μg/L, PACAP 100/200 μg/L or combinations, doses not told apart; untreated infected 26%.
Assay [1] has as its system IPNV (strain ATCC VR-299). Put plainly: Rainbow trout experimentally infected with IPNV, treatment by immersion. In kind it is in vivo, rainbow trout (O. mykiss). As to conditions: for Increment with respect to initial weight / Final Weight: 45 days post-infection; for Final Weight: initial 1.6 ± 0.4 g; for survival: 45 days, untreated infected 20%. On the procedure: An experiment was conducted to evaluate the effect of administration of PACAP and PACAP-ribavirin combination in rainbow trout experimentally infected with IPNV. Eight experimental groups of 50 fish each at a body weight of 1.6±0.4 g were used. The water temperature was kept at 10-12° C. • Group 1: untreated fish not exposed to the virus • Group 2: untreated fish, exposed to the virus • Group 3: Group treated with ribavirin at a dose of 400 μg/L of water, exposed to the virus • Group 4: Group treated with ribavirin at a dose of 800 μg/L of water, exposed to the virus • Group 5: Group treated with PACAP at a dose of 100 μg/L of water, exposed to the virus • Group 6: Group treated with PACAP at a dose of 200 μg/L of water, exposed to the virus. • Group 7: Group treated with the combination 1 (ribavirina 400 μg/L-PACAP 100 μg/L, exposed to the virus.
Group 8: Group treated with the combination 2 (ribavirina 800 μg/L-PACAP 200 μg/L exposed to the virus.
The animals were fed twice a day with an amount equivalent to 3% of the total corporal weight in each tank. […] Fish in Groups 1 and 2 were subjected to the same stress treatment without the antiviral compound or without the PACAP-antiviral combination. The fish in Group 1 received the same procedure with cell culture medium instead of virus. […] Treatments with PACAP or with PACAP-antiviral combination were performed 3 times a week for 20 days. The first treatments were performed 2 h after viral infection. Experimental observations were made during the first 20 days of treatments and 25 days after it concluded. During the experiment (45 days) deaths and abnormal behavior of the fish were monitored.

In assay [2] the test system is IPNV (strain ATCC VR-299). The assay is described as follows: Atlantic salmon experimentally infected with IPNV, treatment by immersion. The settings on record: for Increment / Final Weight: 45 days post-infection; for Final Weight: initial 1.2 ± 0.3 g; for survival: 45 days, untreated infected 30%. Type of assay: in vivo, Atlantic salmon (Salmo salar). How it is done:
An experiment was conducted to evaluate the effect of the administration of PACAP and PACAP-ribavirin combination for salmon (Salmo salar) experimentally infected with IPNV. Eight experimental groups were performed of 50 fish and a size of 1.2±0.3 g each one and were kept in water at 10-12° C.: • Group 1: untreated fish not exposed to the virus • Group 2: untreated fish, exposed to the virus • Group 3: Group treated with ribavirin at a dose of 400 μg/L of water, exposed to the virus • Group 4: Group treated with ribavirin at a dose of 800 μg/L of water, exposed to the virus • Group 5: Group treated with PACAP at a dose of 100 μg/L of water, exposed to the virus • Group 6: Group treated with PACAP at a dose of 200 μg/L, exposed to the virus • Group 7: Group treated with ribavirin 400 μg/L-PACAP 100 μg/L combination, exposed to the virus • Group 8: Group treated with ribavirin 800 μg/L-PACAP 200 μg/L combination, exposed to the virus.
The animals were fed twice a day with an amount equivalent to 3% of the total corporal weight in each tank. […] Treatments were performed 3 times a week for 20 days. Experimental observations were made during this period and 25 days after the last treatments. During the 45 days of the experiment deaths and abnormal behavior of the fish were monitored. Fish in Groups 1 and 2 were subjected to the same stress produced by the treatment without the antiviral compound or the combination of PACAP-antiviral. The fish in Group 1 received the same procedure with cell culture medium instead of the virus.

For assay [3], the system named is IPNV. Put plainly: Oysters experimentally infected with IPNV, viral titer in hepatopancreas. In kind it is in vivo, oysters of the species Pecten maximus. As to conditions: two weeks after challenge, untreated infected 8.1.
Protocol: Eight experimental groups were performed of 30 adult oysters each one and were kept in 250 L of filtered sea water at 10° C.
Treatments were performed 3 times a week for 20 days. Oysters were challenged by exposure to 25 L of water containing 10^7 TCID50 mL^−1 in tanks of 80 L. After 6 h the water was replaced at a slow flow of 1 L/min and at 12 h the flow was increased to 3 L/min.
Two weeks after challenge hepatopancreas samples were taken and determined the viral titer.
Assay [4] relates to IPNV. As to conditions: daily baths 0.4 and 0.8 μg/mL for two hours during 20 days; cited from earlier work.
Setting [5] is: head kidney leukocytes, 10^−9 M.
The mark [6] stands for this setting: Groups 3, 5, 7: ribavirin 400 μg/L, PACAP 100 μg/L or combination 1.
Where [7] appears, read: Groups 4, 6, 8: ribavirin 800 μg/L, PACAP 200 μg/L or combination 2.
Setting [8] is: Groups 3, 5, 7: ribavirin 400 μg/L, PACAP 100 μg/L or both.
Where [9] appears, read: Groups 4, 6, 8: ribavirin 800 μg/L, PACAP 200 μg/L or both.

Marks after values point to notes of the source that are not given here.

Protocol for IHNV: The fish were challenged by immersion with 5.9×10^3 pfu/ml virus in 20 L of water with aeration for 1 hour.

As to PACAP38, the “Mx protein expression levels relative to negative control” value in the assay with Mx protein coding gene (setting [5]) is reported as “stimulatory effect”; in the assay with Mx protein coding gene (peripheral blood leukocytes, 10^−8 M) it was “did not differ”; in the assay on Mx protein coding gene (peripheral blood leukocytes, 10^−9 M, below levels at 10^−10 M), “stimulatory effect”; with Mx protein coding gene (peripheral blood leukocytes, 10^−10 M) it was “increase”. Besides, the “TLR9 expression levels versus negative control” value in the assay on TLR9 coding gene (setting [5]) is “statistically higher than the negative control”. In the assay with TLR9 coding gene (peripheral blood leukocytes, 10^−10-10^−8 M, undetectable in unstimulated cultures), the TLR9 expression levels entry is reported as “detectable levels”. In addition, the “dose giving the highest TLR9 expression values” in the assay with TLR9 coding gene (peripheral blood leukocytes) is 10^−10 M. In addition, in the assay with IFN γ coding gene (anterior kidney leukocytes, 10^−9 and 10^−8 M), the “IFN γ expression levels versus control group” value is given as “statistically higher than the control group”. Besides, the “dose giving the best IFN γ expression results” value in the assay with IFN γ coding gene (anterior kidney leukocytes) was 10^−9 M. In the assay with IFN γ coding gene (peripheral blood leukocytes, 3 doses (10^−10, 10^−9, 10^−8 M), undetectable in non-treated cultures), the “IFN γ expression levels” value is given as “detectable levels of expression”. Further, in the assay with IFN γ coding gene (peripheral blood leukocytes), the “dose giving the highest IFN γ expression level” value is 10^−9 M.
Take `NC12CC3CC(CC(C3)C1)C2` [amantadine]: in the assay with IHNV, the survival is 46%.
Turning to `NC(=O)c1ncn([C@@H]2O[C@H](CO)[C@@H](O)[C@H]2O)n1` [ribavirin], the figures for the “Increment with respect to initial weight” value in assay [1] (setting [6]) and in assay [1] (setting [7]) were 137% and 131%, respectively. For the same compound, the “Final Weight” value in assay [1] (setting [6]) is listed as 3.8 ± 1.1^c g; in assay [1] (setting [7]), 3.7 ± 1.0^c g; in assay [2] (setting [8]), 2.2 ± 0.4^c g; in assay [2] (setting [9]), 2.3 ± 0.5^c g. The survival in assay [1] (setting [6]) came out at 68%; in assay [1] (setting [7]), 70%; in assay [2] (high dose: ribavirin 800 μg/L or PACAP 200 μg/L), 76%; in assay [2] (low dose: ribavirin 400 μg/L or PACAP 100 μg/L), 70%. The “day on which appetite was recovered” value in assay [1] (rainbow trout, IPNV, both doses, untreated infected: day 15) was 13 days. In addition, the “day on which signs of disease were detected” value in assay [1] (rainbow trout, IPNV, treatments 3 times a week for 20 days, both doses, untreated infected: day 6) is 8 days. For the same compound, the “day on which early signs of disease were detected” value in assay [2] (Atlantic salmon, IPNV, both doses, untreated infected: day 6) turned out to be 10 days. In addition, the Increment is 83% in assay [2] (setting [8]) and 92% in assay [2] (setting [9]). The “IPNV average viral titer in the hepatopancreas” value is on record as 5.4^b log10TCID50 g^−1 in the assay on IPNV [3] (setting [6]) and 4.3^b log10TCID50 g^−1 with IPNV [3] (setting [7]).
As to `C#Cc1c(C(N)=O)ncn1[C@@H]1O[C@H](CO)[C@@H](O)[C@H]1O` [EICAR, 5-ethynyl-1-β-D-ribofuranosylimidazole-carboxamide], the “viral load in liver and spleen (RT-PCR)” value in the assay with IPNV [4] is reported as “decrease in viral load”.
